From PMC4279419, “Angiostatic, tumor inflammatory and anti-tumor effects of CXCL4^47–70 and CXCL4L1^47–70 in an EGF-dependent breast cancer model” (Oncotarget, 2014)
Where no end group is shown, it is not given here.

Experiments:
[1] = tested on: macrophage markers; test: qPCR tumor macrophage marker expression; type: in vivo, murine; settings: 2.5 μg intratumoral 3×/week; 2^−ΔΔCT
Description: (§1) The RNeasy Mini Kit (QIAGEN, Venlo, the Netherlands) was used for tumor mRNA extraction. The extracted mRNA was then converted to cDNA making use of the High Capacity cDNA Reverse Transcription Kit (Applied Biosystems, Foster City, CA). Quantitative polymerase chain reactions (qPCR) based on the TaqMan principle were conducted to compare gene expression between samples. Primers and probes (Table 2; Integrated DNA Technologies, Haasrode, Belgium), were diluted to the prescribed working concentrations in RNase-free water and added to the reaction mix in a MicroAmp® fast optical 96-well reaction plate (Applied Biosystems), together with 50 ng sample cDNA per reaction. The actual thermocycler program consisted of 2 minutes on 50 °C, 10 minutes on 95 °C and 40 cycles of 15 seconds on 95 °C followed by 1 minute on 60 °C. Analysis of the obtained CT was based on the 2^−ΔΔC^T method, opting for 18S ribosomal 1 RNA as an internal control.

[2] = tested on: F4/80^+ cells in MDA-MB-231 tumors; test: Flow cytometry of intratumoral F4/80^+ cells; type: in vivo, mice; settings: 2.5 μg intratumoral 3×/week; n=9; control 6.85 ± 1.18% (n=10)
Description: For flow cytometry, single cell suspensions were prepared from tumor biopsies using a MACS dissociator (Myltenyi Biotec, Bergisch Gladbach, Germany) and a mixture of collagenase A and dispase. Remaining cell clumps were removed by passing the cell suspension through a nylon cell strainer (70 μm mesh). Remaining red blood cells were lysed in ACK lysis buffer (0.15 M NH4Cl, 0.1 mM Na2EDTA, 10 mM KHCO3; pH = 7.2). Subsequently monocytes were identified by flow cytometry using specific antibodies, namely rat anti-mouse F4/80-PE antibody (eBiosciences, San Diego, CA).

[3] = tested on: B16 melanoma; settings: previous study by our group; cited from earlier work
Text: The chemokines CXCL4 and CXCL4L1 have both been attributed anti-tumoral activity as a result of angiostatic action, blockade of lymphatic vessel formation and the attraction of anti-tumoral lymphocytes. CXCL4L1 is considered to be a more powerful angiostatic and anti-tumoral agent than its homologue CXCL4, despite their striking 96% sequence identity. This functional difference has been linked to a single amino acid replacement, causing CXCL4L1 to adapt a unique carboxy-terminal 3D-structure with decreased affinity for GAGs. However, the causal link ...

[4] = tested on: IL-12; test: qPCR tumor IL-12 mRNA (M1 marker); type: in vivo, murine; settings: 2.5 μg intratumoral 3×/week; 2^−ΔΔCT; not reaching statistical significance
Description: as §1

[5] = tested on: F4/80; test: qPCR tumor F4/80 mRNA; type: in vivo, murine; settings: 2.5 μg intratumoral 3×/week; 2^−ΔΔCT; p=0.008, n=10
Description: as §1

[6] = tested on: monocytic THP-1; settings: as a single stimulus; cited from earlier work
Text: Perception of the role of the immune system in tumor development has changed over time. Tumor inflammation is indeed the seventh hallmark of malignant disease, but the sizeable myeloid population present has been mostly observed to take on a tumor-promoting role rather than exert its protective, phagocytic and cytotoxic function. This shift could be attributed to the phagocytes' versatility and their ability to adopt distinct phenotypes influenced by locally produced factors. Rather than depleting the tumoral myeloid cell population, it could be beneficial to tackle its pola ...

[7] = tested on: TGM2; test: qPCR tumor TGM2 mRNA (M2 marker); type: in vivo, murine; settings: 2.5 μg intratumoral 3×/week; 2^−ΔΔCT
Description: as §1

[8] = tested on: NOS2; test: qPCR tumor NOS2 mRNA (M1 marker); type: in vivo, murine; settings: 2.5 μg intratumoral 3×/week; 2^−ΔΔCT; not reaching statistical significance
Description: as §1

| Substance | macrophage marker expression versus vehicle [1] | intratumoral F4/80^+ cells [2] [%] | effect in treatment of B16 melanoma [3] | IL-12 mRNA versus control [4] | F4/80 mRNA level versus control [5] | THP-1 migration, single stimulus [6] | TGM2 mRNA versus control [7] | NOS2 mRNA versus control [8] |
| --- | --- | --- | --- | --- | --- | --- | --- | --- |
| CXCL4L1^47–70: synthetic human carboxy-terminal peptide restricted to the last 24 amino acids of CXCL4L1, Fmoc chemistry | No significant changes in macrophage marker expression | 7.74 ± 1.35 | beneficial effects of CXCL4L1^47–70 |  |  |  |  |  |
| CXCL4^47–70: synthetic human carboxy-terminal peptide restricted to the last 24 amino acids of CXCL4, Fmoc chemistry (NGRKICLDLQAPLYKKIIKKLLES; not fully specified (N-terminus)) |  |  |  | only modestly increased | significantly higher | not to stimulate monocytic THP-1 migration | only a modest increase | only modestly increased |
